From publication PMC8372979 (Journal of medicinal chemistry, 2020) come the findings set out here.

The subject of one data set is CYP3A4. The data set is described as follows: CYP3A4 induction. The data set is classed as in vitro ADME. The note with it: in words.
Data set [1] is described as follows: Pharmacokinetics in female NMRI mice. The data set is classed as in vivo, mouse.
Another data set relates to Caco-2 cells. The data set is described as follows: Caco-2 permeability. The data set is classed as in vitro ADME. For orientation: Passage across Caco-2 layers is used to estimate intestinal permeability.
Data set [2] relates to Bloodstream Trypanosoma brucei brucei Lister 427 (STIB 795). Put plainly: Growth inhibition assay for T. brucei brucei. The note with it: pEC50=−logEC50; 72 h, resazurin. Format: cell-based. (In general: Alamar Blue is a resazurin reagent that responds to reducing activity.)

Regarding `Cn1nccc1Nc1nc(NCC(F)(F)F)c2nc[nH]c2n1` [Compound 4aa, N^2-(1-methyl-1H-pyrazol-5-yl)-N^6-(2,2,2-trifluoroethyl)-9H-purine-2,6-diamine], the “CYP3A4 Liability (induction)” value with CYP3A4 is given as “does not have CYP3A4 induction liability”. Besides, the Cmax in data set [1] (female, NMRI, mouse, in vivo, ip, 10 mg/kg, Mean Cmax ± SD, non-infected female NMRI mice, 10 mg/kg ip, without ABT-pretreatment, blood) was found to be 3670 ± 922 ng/mL. Also, the Mean tmax in data set [1] (infected female NMRI mice, 30 mg/kg ip + ABT, day 1, blood) was in the range of 30 to 120 min. The “A-B Permeability Ranking” value with Caco-2 cells (Caco-2) is reported as “Higher”. Also, in the data set on Caco-2 cells (in words), the Caco-2 efflux entry is “rapidly effluxed” and the Caco-2 permeability entry is listed as “Permeable”.
Turning to “N^6-(tert-butyl)-N^2-(thiophen-3-yl)-9H-purine-2,6-diamine [Compound 5r]”, the “T. brucei pEC50” value in data set [2] worked out at 7.1.

A word on the Cmax: it is the peak of the concentration-time curve.
